Measurements reported in article PMC7311426, “An amphipathic peptide with antibiotic activity against multidrug-resistant Gram-negative bacteria” (Nature Communications, 2020).

Assays:
Test in all cases: microbe, parasite or virus in culture
E. coli = tested on: E. coli
Outline: (§1)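 MICs were scored by eye after 18-20 h static incubation at 37 °C, with bacteria at 5 × 10^5 CFU mL^−1 in MHB. Peptides were serially diluted 2-fold over 12 points, top 128 or 64 μg mL^−1. CAMHB (CLSI) and 1% agarose-MHB variants were also run, at least six replicates.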

K. pneumoniae = tested on: K. pneumoniae
Outline: as §1

P. aeruginosa = tested on: P. aeruginosa
Outline: as §1

Measured: MIC, broth microdilution

NC[C@H]1O[C@H](O[C@H]2[C@H](O)[C@@H](O[C@H]3O[C@H](CO)[C@@H](O)[C@H](N)[C@H]3O)[C@H](N)C[C@@H]2N)[C@H](N)C[C@@H]1O [TOB]
16, 16 µg/mL: K. pneumoniae; K. pneumoniae ST258 spontaneous mutant, AA139 selection 4X, plate 1, colony 1, drug-free passage 1 | K. pneumoniae; K. pneumoniae ST258 spontaneous mutant, AA139 selection 4X, plate 1, colony 1, drug-free passage 5
1, 1 µg/mL: P. aeruginosa; P. aeruginosa UNT 138-1 spontaneous mutant, AA139 selection 4X, plate 1, colony 1, drug-free passage 1 | P. aeruginosa; P. aeruginosa UNT 138-1 spontaneous mutant, AA139 selection 4X, plate 1, colony 1, drug-free passage 5 | P. aeruginosa; P. aeruginosa UNT 138-1 spontaneous mutant, AA139 selection 4X, plate 2, colony 1, drug-free passage 1 | P. aeruginosa; P. aeruginosa UNT 138-1 spontaneous mutant, AA139 selection 4X, plate 2, colony 1, drug-free passage 5
2 µg/mL: P. aeruginosa; P. aeruginosa UNT 138-1 spontaneous mutant, AA139 selection 8X, plate 1, colony 1, drug-free passage 5
1 µg/mL: K. pneumoniae; K. pneumoniae 3010 spontaneous mutant, AA139 selection 4X, plate 1, colony 1, drug-free passage 1 | P. aeruginosa; P. aeruginosa ATCC 27853 spontaneous mutant, AA139 selection 4X, plate 1, colony 1, drug-free passage 1 | P. aeruginosa; P. aeruginosa ATCC 27853 spontaneous mutant, AA139 selection 4X, plate 1, colony 5, drug-free passage 1 | P. aeruginosa; P. aeruginosa ATCC 27853 spontaneous mutant, AA139 selection 4X, plate 1, colony 6, drug-free passage 1 | P. aeruginosa; P. aeruginosa ATCC 27853 spontaneous mutant, AA139 selection 4X, plate 2, colony 3, drug-free passage 1 | P. aeruginosa; P. aeruginosa ATCC 27853 spontaneous mutant, AA139 selection 4X, plate 2, colony 4, drug-free passage 1 | P. aeruginosa; P. aeruginosa ATCC 27853 spontaneous mutant, AA139 selection 8X, plate 1, colony 1, drug-free passage 1 | P. aeruginosa; P. aeruginosa ATCC 27853 spontaneous mutant, AA139 selection 8X, plate 1, colony 2, drug-free passage 1 | P. aeruginosa; P. aeruginosa ATCC 27853 spontaneous mutant, AA139 selection 8X, plate 1, colony 3, drug-free passage 1 | P. aeruginosa; P. aeruginosa ATCC 27853 spontaneous mutant, AA139 selection 8X, plate 1, colony 4, drug-free passage 1 | P. aeruginosa; P. aeruginosa UNT 138-1 spontaneous mutant, AA139 selection 4X, plate 1, colony 3, drug-free passage 1 | P. aeruginosa; P. aeruginosa UNT 138-1 spontaneous mutant, AA139 selection 4X, plate 1, colony 5, drug-free passage 1 | P. aeruginosa; P. aeruginosa UNT 138-1 spontaneous mutant, AA139 selection 4X, plate 1, colony 6, drug-free passage 1 | P. aeruginosa; P. aeruginosa UNT 138-1 spontaneous mutant, AA139 selection 4X, plate 2, colony 3, drug-free passage 1 | P. aeruginosa; P. aeruginosa UNT 138-1 spontaneous mutant, AA139 selection 4X, plate 2, colony 5, drug-free passage 1 | P. aeruginosa; P. aeruginosa UNT 138-1 spontaneous mutant, AA139 selection 8X, plate 1, colony 2, drug-free passage 1 | P. aeruginosa; P. aeruginosa UNT 138-1 spontaneous mutant, AA139 selection 8X, plate 1, colony 4, drug-free passage 1
0.5 µg/mL: K. pneumoniae; K. pneumoniae 3010 parent strain not exposed to drug | K. pneumoniae; K. pneumoniae 3010 spontaneous mutant, AA139 selection 8X, plate 1, colony 1, drug-free passage 1 | P. aeruginosa; P. aeruginosa ATCC 27853 parent strain not exposed to drug | P. aeruginosa; P. aeruginosa ATCC 27853 spontaneous mutant, AA139 selection 4X, plate 1, colony 1, drug-free passage 5 | P. aeruginosa; P. aeruginosa ATCC 27853 spontaneous mutant, AA139 selection 4X, plate 1, colony 5, drug-free passage 5 | P. aeruginosa; P. aeruginosa ATCC 27853 spontaneous mutant, AA139 selection 4X, plate 1, colony 6, drug-free passage 5 | P. aeruginosa; P. aeruginosa ATCC 27853 spontaneous mutant, AA139 selection 4X, plate 2, colony 3, drug-free passage 5 | P. aeruginosa; P. aeruginosa ATCC 27853 spontaneous mutant, AA139 selection 4X, plate 2, colony 4, drug-free passage 5 | P. aeruginosa; P. aeruginosa ATCC 27853 spontaneous mutant, AA139 selection 8X, plate 1, colony 1, drug-free passage 5 | P. aeruginosa; P. aeruginosa ATCC 27853 spontaneous mutant, AA139 selection 8X, plate 1, colony 2, drug-free passage 5 | P. aeruginosa; P. aeruginosa ATCC 27853 spontaneous mutant, AA139 selection 8X, plate 1, colony 3, drug-free passage 5 | P. aeruginosa; P. aeruginosa ATCC 27853 spontaneous mutant, AA139 selection 8X, plate 1, colony 4, drug-free passage 5 | P. aeruginosa; P. aeruginosa UNT 138-1 parent strain not exposed to drug | P. aeruginosa; P. aeruginosa UNT 138-1 spontaneous mutant, AA139 selection 4X, plate 1, colony 3, drug-free passage 5 | P. aeruginosa; P. aeruginosa UNT 138-1 spontaneous mutant, AA139 selection 4X, plate 1, colony 5, drug-free passage 5 | P. aeruginosa; P. aeruginosa UNT 138-1 spontaneous mutant, AA139 selection 4X, plate 1, colony 6, drug-free passage 5 | P. aeruginosa; P. aeruginosa UNT 138-1 spontaneous mutant, AA139 selection 4X, plate 2, colony 3, drug-free passage 5 | P. aeruginosa; P. aeruginosa UNT 138-1 spontaneous mutant, AA139 selection 4X, plate 2, colony 5, drug-free passage 5 | P. aeruginosa; P. aeruginosa UNT 138-1 spontaneous mutant, AA139 selection 8X, plate 1, colony 1, drug-free passage 1 | P. aeruginosa; P. aeruginosa UNT 138-1 spontaneous mutant, AA139 selection 8X, plate 1, colony 2, drug-free passage 5 | P. aeruginosa; P. aeruginosa UNT 138-1 spontaneous mutant, AA139 selection 8X, plate 1, colony 4, drug-free passage 5
16 µg/mL: E. coli; E. coli AUD172 spontaneous mutant, AA139 selection 4X, plate 2, colony 2, drug-free passage 5 | K. pneumoniae; K. pneumoniae ST258 parent strain not exposed to drug
0.5, 0.5 µg/mL: P. aeruginosa; P. aeruginosa ATCC 27853 spontaneous mutant, AA139 selection 4X, plate 1, colony 2, drug-free passage 1 | P. aeruginosa; P. aeruginosa ATCC 27853 spontaneous mutant, AA139 selection 4X, plate 1, colony 2, drug-free passage 5 | P. aeruginosa; P. aeruginosa ATCC 27853 spontaneous mutant, AA139 selection 4X, plate 1, colony 3, drug-free passage 1 | P. aeruginosa; P. aeruginosa ATCC 27853 spontaneous mutant, AA139 selection 4X, plate 1, colony 3, drug-free passage 5 | P. aeruginosa; P. aeruginosa ATCC 27853 spontaneous mutant, AA139 selection 4X, plate 1, colony 4, drug-free passage 1 | P. aeruginosa; P. aeruginosa ATCC 27853 spontaneous mutant, AA139 selection 4X, plate 1, colony 4, drug-free passage 5 | P. aeruginosa; P. aeruginosa ATCC 27853 spontaneous mutant, AA139 selection 4X, plate 2, colony 1, drug-free passage 1 | P. aeruginosa; P. aeruginosa ATCC 27853 spontaneous mutant, AA139 selection 4X, plate 2, colony 1, drug-free passage 5 | P. aeruginosa; P. aeruginosa ATCC 27853 spontaneous mutant, AA139 selection 4X, plate 2, colony 2, drug-free passage 1 | P. aeruginosa; P. aeruginosa ATCC 27853 spontaneous mutant, AA139 selection 4X, plate 2, colony 2, drug-free passage 5 | P. aeruginosa; P. aeruginosa ATCC 27853 spontaneous mutant, AA139 selection 8X, plate 1, colony 5, drug-free passage 1 | P. aeruginosa; P. aeruginosa ATCC 27853 spontaneous mutant, AA139 selection 8X, plate 1, colony 5, drug-free passage 5 | P. aeruginosa; P. aeruginosa UNT 138-1 spontaneous mutant, AA139 selection 4X, plate 1, colony 2, drug-free passage 1 | P. aeruginosa; P. aeruginosa UNT 138-1 spontaneous mutant, AA139 selection 4X, plate 1, colony 2, drug-free passage 5 | P. aeruginosa; P. aeruginosa UNT 138-1 spontaneous mutant, AA139 selection 4X, plate 1, colony 4, drug-free passage 1 | P. aeruginosa; P. aeruginosa UNT 138-1 spontaneous mutant, AA139 selection 4X, plate 1, colony 4, drug-free passage 5 | P. aeruginosa; P. aeruginosa UNT 138-1 spontaneous mutant, AA139 selection 4X, plate 1, colony 7, drug-free passage 1 | P. aeruginosa; P. aeruginosa UNT 138-1 spontaneous mutant, AA139 selection 4X, plate 1, colony 7, drug-free passage 5 | P. aeruginosa; P. aeruginosa UNT 138-1 spontaneous mutant, AA139 selection 4X, plate 2, colony 2, drug-free passage 1 | P. aeruginosa; P. aeruginosa UNT 138-1 spontaneous mutant, AA139 selection 4X, plate 2, colony 2, drug-free passage 5 | P. aeruginosa; P. aeruginosa UNT 138-1 spontaneous mutant, AA139 selection 4X, plate 2, colony 4, drug-free passage 1 | P. aeruginosa; P. aeruginosa UNT 138-1 spontaneous mutant, AA139 selection 4X, plate 2, colony 4, drug-free passage 5 | P. aeruginosa; P. aeruginosa UNT 138-1 spontaneous mutant, AA139 selection 4X, plate 2, colony 6, drug-free passage 1 | P. aeruginosa; P. aeruginosa UNT 138-1 spontaneous mutant, AA139 selection 4X, plate 2, colony 6, drug-free passage 5 | P. aeruginosa; P. aeruginosa UNT 138-1 spontaneous mutant, AA139 selection 4X, plate 2, colony 7, drug-free passage 1 | P. aeruginosa; P. aeruginosa UNT 138-1 spontaneous mutant, AA139 selection 4X, plate 2, colony 7, drug-free passage 5 | P. aeruginosa; P. aeruginosa UNT 138-1 spontaneous mutant, AA139 selection 8X, plate 1, colony 3, drug-free passage 1 | P. aeruginosa; P. aeruginosa UNT 138-1 spontaneous mutant, AA139 selection 8X, plate 1, colony 3, drug-free passage 5 | P. aeruginosa; P. aeruginosa UNT 138-1 spontaneous mutant, AA139 selection 8X, plate 1, colony 5, drug-free passage 1 | P. aeruginosa; P. aeruginosa UNT 138-1 spontaneous mutant, AA139 selection 8X, plate 1, colony 5, drug-free passage 5 | P. aeruginosa; P. aeruginosa UNT 138-1 spontaneous mutant, AA139 selection 8X, plate 2, colony 1, drug-free passage 1 | P. aeruginosa; P. aeruginosa UNT 138-1 spontaneous mutant, AA139 selection 8X, plate 2, colony 1, drug-free passage 5
0.25 µg/mL: K. pneumoniae; K. pneumoniae 3010 spontaneous mutant, AA139 selection 4X, plate 1, colony 1, drug-free passage 5 | K. pneumoniae; K. pneumoniae 3010 spontaneous mutant, AA139 selection 8X, plate 1, colony 1, drug-free passage 5
8 µg/mL: E. coli; E. coli AUD172 parent strain not exposed to drug | E. coli; E. coli AUD172 spontaneous mutant, AA139 selection 4X, plate 2, colony 2, drug-free passage 1
